We go through 18 compounds from PubChem BioAssay AID256 (DTP/NCI, 2004).

The subject of the assay is CD2F1 mice, L1210 leukemia ip, survival T/C. Put plainly: NCI In Vivo Anticancer Drug Screen. Data for tumor model L1210 Leukemia (intraperitoneal) in CD2F1 (CDF1) mice. To be noted: higher = longer survival. The gist of the method:
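Vehicle-treated tumor-bearing mice served as controls (C) for compound-treated mice (T). Reported figure is T divided by C.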

[1] abbreviates: endpoint: mean survival time, dose: 100.0 mg/kg/injection, schedule: Q01DX009 (ip), vehicle: saline with Tween-80.
The mark [2] stands for this setting: endpoint: mean survival time, dose: 200.0 mg/kg/injection, schedule: Q01DX009 (ip), vehicle: saline with Tween-80.
[3] abbreviates: endpoint: mean survival time, dose: 400.0 mg/kg/injection, schedule: Q01DX009 (ip), vehicle: saline with Tween-80.
[4] abbreviates: endpoint: mean survival time, dose: 6.25 mg/kg/injection, schedule: Q01DX009 (ip), vehicle: saline with Tween-80.
The mark [5] stands for this setting: endpoint: mean survival time, dose: 100.0 mg/kg/injection, schedule: Q04DX003 (ip), vehicle: saline with Tween-80.
[6] abbreviates: endpoint: mean survival time, dose: 400.0 mg/kg/injection, schedule: Q04DX003 (ip), vehicle: saline with Tween-80.

Several values for one entry are separate records, joined by “and”; a condition that tells them apart may be missing. Identical values can stand only once. Inconclusive results and toxic doses are left out.

Take `O=C(Nc1ccc(S(=O)(=O)F)c(Cl)c1)Oc1ccccc1`: the T/C by setting is: under setting [1], 101 % of control; (endpoint: mean survival time, dose: 100.0 mg/kg/injection, schedule: Q04DX003 (ip), vehicle: saline) 95 % of control; under setting [2], 100 % of control; (endpoint: mean survival time, dose: 200.0 mg/kg/injection, schedule: Q04DX003 (ip), vehicle: saline) 95 % of control; under setting [3], 97 % of control; (endpoint: mean survival time, dose: 400.0 mg/kg/injection, schedule: Q04DX003 (ip), vehicle: saline) 101 % of control.

Turning to `C[CH2][Sn]([I])([CH2]C)[CH2]C`, the T/C under setting [4] is 89 % of control.

With `CN(C)c1ccc(/C=N/NC(=O)COc2ccccc2)cc1`, the T/C runs as follows: under setting [1], 91 % of control; under setting [2], 89 % of control.

Regarding `CC(C)(C)NC(C1=CC(C)(C)c2ccccc2C1=O)c1ccccc1` (stereo not drawn), the T/C reads like this: (endpoint: median survival time, dose: 50.0 mg/kg/injection, schedule: Q01DX009 (ip), vehicle: Klucel (hydroxypropylcellulose) (HPC)) 101 % of control; (endpoint: median survival time, dose: 100.0 mg/kg/injection, schedule: Q01DX009 (ip), vehicle: Klucel (hydroxypropylcellulose) (HPC)) 101 % of control; (endpoint: median survival time, dose: 200.0 mg/kg/injection, schedule: Q01DX009 (ip), vehicle: Klucel (hydroxypropylcellulose) (HPC)) 101 % of control.

With `CC1=CC(=O)C(c2ccc(O)cc2O)=CC1=O`, the T/C is, setting by setting: (endpoint: mean survival time, dose: 2.5 mg/kg/injection, schedule: Q01DX009 (ip), vehicle: saline with Tween-80) 96 % of control; (endpoint: mean survival time, dose: 2.5 mg/kg/injection, schedule: Q04DX003 (ip), vehicle: saline with Tween-80) 102 % of control; (endpoint: mean survival time, dose: 5.0 mg/kg/injection, schedule: Q01DX009 (ip), vehicle: saline with Tween-80) 91 % of control; (endpoint: mean survival time, dose: 5.0 mg/kg/injection, schedule: Q04DX003 (ip), vehicle: saline with Tween-80) 104 % of control; (endpoint: mean survival time, dose: 10.0 mg/kg/injection, schedule: Q01DX009 (ip), vehicle: saline with Tween-80) 95 % of control; (endpoint: mean survival time, dose: 10.0 mg/kg/injection, schedule: Q04DX003 (ip), vehicle: saline with Tween-80) 95 % of control.

For `Cc1c(O)c2c(c(O)c1Cc1ccc(CN)cc1)C(=O)c1ccccc1C2=O`, the T/C is 103 % of control (endpoint: mean survival time, dose: 1.56 mg/kg/injection, schedule: Q01DX009 (ip), vehicle: water); 101 % of control (endpoint: mean survival time, dose: 3.13 mg/kg/injection, schedule: Q01DX009 (ip), vehicle: water); 95 % of control (endpoint: mean survival time, dose: 6.25 mg/kg/injection, schedule: Q01DX009 (ip), vehicle: water); 103 % of control (endpoint: mean survival time, dose: 12.5 mg/kg/injection, schedule: Q01DX009 (ip), vehicle: water); 87 % of control (endpoint: mean survival time, dose: 25.0 mg/kg/injection, schedule: Q01DX009 (ip), vehicle: water).

For `COC1OC2COc3ccccc3OC2C(N)C1Nc1ccccc1` (stereo not drawn), the T/C is, setting by setting: (endpoint: mean survival time, dose: 75.0 mg/kg/injection, schedule: Q01DX001 (ip), vehicle: saline with Tween-80) 101 % of control; (endpoint: mean survival time, dose: 150.0 mg/kg/injection, schedule: Q01DX001 (ip), vehicle: saline with Tween-80) 101 % of control; (endpoint: mean survival time, dose: 300.0 mg/kg/injection, schedule: Q01DX001 (ip), vehicle: saline with Tween-80) 100 % of control.

For the compound `N#CS.[Co+3].[NH-]CC[NH-].[NH-]CC[NH-].[NH-]CC[SH2+]`, the T/C (endpoint: mean survival time, dose: 100.0 mg/kg/injection, schedule: Q04DX002 (ip), vehicle: saline) is 112 % of control; the T/C (endpoint: mean survival time, dose: 200.0 mg/kg/injection, schedule: Q04DX002 (ip), vehicle: saline) was 104 % of control; the T/C (endpoint: mean survival time, dose: 400.0 mg/kg/injection, schedule: Q04DX002 (ip), vehicle: saline) was 108 % of control.

Turning to `CC(O)CC1CCCC(CC(C)O)N1` (stereo not drawn), the T/C is 103 % of control (endpoint: mean survival time, dose: 5.0 mg/kg/injection, schedule: Q01DX001 (ip), vehicle: saline); 97 % of control (endpoint: mean survival time, dose: 10.0 mg/kg/injection, schedule: Q01DX001 (ip), vehicle: saline); 103 % of control (endpoint: mean survival time, dose: 20.0 mg/kg/injection, schedule: Q01DX001 (ip), vehicle: saline); 105 % of control (endpoint: mean survival time, dose: 40.0 mg/kg/injection, schedule: Q01DX001 (ip), vehicle: saline); 98 % of control (endpoint: mean survival time, dose: 75.0 mg/kg/injection, schedule: Q01DX001 (ip), vehicle: saline); 102 % of control (endpoint: mean survival time, dose: 300.0 mg/kg/injection, schedule: Q01DX001 (ip), vehicle: saline).

Consider `Nc1cc2c(cc1Br)-c1ccccc1C2Br` (stereo not drawn), for which the T/C by setting is: under setting [5], 94 % of control; under setting [6], 92 % of control.

Turning to `COc1ccc2cc(CC(=O)c3ccccc3)ccc2c1`, the T/C runs as follows: under setting [1], 100 % of control; under setting [2], 96 % of control; under setting [3], 90 % of control.

As to `CC(C)c1nc(CCl)c(CCl)n1Cc1ccccc1`, the T/C by setting is: (endpoint: mean survival time, dose: 50.0 mg/kg/injection, schedule: Q01DX009 (ip), vehicle: Klucel (hydroxypropylcellulose) (HPC)) 97 % of control; (endpoint: mean survival time, dose: 100.0 mg/kg/injection, schedule: Q01DX009 (ip), vehicle: Klucel (hydroxypropylcellulose) (HPC)) 94 % of control; (endpoint: mean survival time, dose: 200.0 mg/kg/injection, schedule: Q01DX009 (ip), vehicle: Klucel (hydroxypropylcellulose) (HPC)) 90 % of control.

`O=NN(CCCl)C(=O)NCc1ccc[n+]([O-])c1`: the T/C by setting is: (endpoint: mean survival time, dose: 6.25 mg/kg/injection, schedule: Q01DX001 (ip), vehicle: water) 152 % of control and 167 % of control; (endpoint: mean survival time, dose: 12.5 mg/kg/injection, schedule: Q01DX001 (ip), vehicle: water) 274 % of control and 290 % of control; (endpoint: mean survival time, dose: 25.0 mg/kg/injection, schedule: Q01DX001 (ip), vehicle: water) 309 % of control and 324 % of control.

`CC1(C)OC2C(CO)OC(n3nc(SCc4ccccc4)c(=S)[nH]c3=O)C2O1` (stereo not drawn): the T/C reads like this: (endpoint: median survival time, dose: 12.5 mg/kg/injection, schedule: Q01DX005 (ip), vehicle: distilled water + Tween-80) 96 % of control; (endpoint: median survival time, dose: 25.0 mg/kg/injection, schedule: Q01DX005 (ip), vehicle: distilled water + Tween-80) 103 % of control; (endpoint: median survival time, dose: 50.0 mg/kg/injection, schedule: Q01DX005 (ip), vehicle: distilled water + Tween-80) 96 % of control; (endpoint: median survival time, dose: 100.0 mg/kg/injection, schedule: Q01DX005 (ip), vehicle: distilled water + Tween-80) 96 % of control; (endpoint: median survival time, dose: 200.0 mg/kg/injection, schedule: Q01DX005 (ip), vehicle: distilled water + Tween-80) 95 % of control.

Regarding `CCCCCCCCCCCC1CCCC(C)N1` (stereo not drawn), the T/C (endpoint: mean survival time, dose: 50.0 mg/kg/injection, schedule: Q04DX002 (ip), vehicle: saline with Tween-80) was 98 % of control.

In the case of `Cc1ccc(-c2nn[nH]n2)cc1[N+](=O)[O-]`, the T/C reads like this: (endpoint: mean survival time, dose: 100.0 mg/kg/injection, schedule: Q01DX001 (ip), vehicle: saline with Tween-80) 109 % of control; under setting [5], 95 % of control; (endpoint: mean survival time, dose: 200.0 mg/kg/injection, schedule: Q01DX001 (ip), vehicle: saline with Tween-80) 86 % of control; (endpoint: mean survival time, dose: 200.0 mg/kg/injection, schedule: Q04DX003 (ip), vehicle: saline with Tween-80) 97 % of control; (endpoint: mean survival time, dose: 400.0 mg/kg/injection, schedule: Q01DX001 (ip), vehicle: saline with Tween-80) 89 % of control; under setting [6], 95 % of control.

As to `[O-][n+]1cc(N=Nc2ccc(Cl)cc2)nn1-c1ccc(Cl)cc1`, for the setting “endpoint: mean survival time, dose: 400.0 mg/kg/injection, schedule: Q01DX001 (ip), vehicle: saline”, the T/C was 86 % of control.

On to `Cc1cc(NCCCCCCCNc2cc(C)nc3cc(N)ccc23)c2ccc(N)cc2n1`, for which the T/C (endpoint: mean survival time, dose: 0.78 mg/kg/injection, schedule: Q01DX009 (ip), vehicle: saline with Tween-80) was 123 % of control and 110 % of control; the T/C (endpoint: mean survival time, dose: 1.56 mg/kg/injection, schedule: Q01DX009 (ip), vehicle: saline with Tween-80) is 121 % of control and 123 % of control; the T/C under setting [4] was 153 % of control; the T/C (endpoint: mean survival time, dose: 12.5 mg/kg/injection, schedule: Q01DX009 (ip), vehicle: saline with Tween-80) was 157 % of control and 183 % of control; the T/C (endpoint: mean survival time, dose: 25.0 mg/kg/injection, schedule: Q01DX009 (ip), vehicle: saline with Tween-80) was 104 % of control; the T/C (endpoint: median survival time, dose: 0.78 mg/kg/injection, schedule: Q01DX009 (ip), vehicle: distilled water + Tween-80) was 119 % of control. Moreover, the T/C is 113 % of control (endpoint: median survival time, dose: 0.78 mg/kg/injection, schedule: Q01DX009 (ip), vehicle: other); 121 % of control (endpoint: median survival time, dose: 1.56 mg/kg/injection, schedule: Q01DX009 (ip), vehicle: distilled water + Tween-80); 120 % of control (endpoint: median survival time, dose: 1.56 mg/kg/injection, schedule: Q01DX009 (ip), vehicle: other); 150 % of control (endpoint: median survival time, dose: 6.25 mg/kg/injection, schedule: Q01DX009 (ip), vehicle: other); 157 % of control (endpoint: median survival time, dose: 6.25 mg/kg/injection, schedule: Q01DX009 (ip), vehicle: water); 167 % of control (endpoint: median survival time, dose: 12.5 mg/kg/injection, schedule: Q01DX009 (ip), vehicle: distilled water + Tween-80). The T/C (endpoint: median survival time, dose: 12.5 mg/kg/injection, schedule: Q01DX009 (ip), vehicle: other) is 170 % of control and the T/C (endpoint: median survival time, dose: 12.5 mg/kg/injection, schedule: Q01DX009 (ip), vehicle: water) was 180 % of control.
